Data set [1] is described as follows: Toxicity in ip dosed mouse. Format: organism-based. The following applies: in vivo.
Data set [2] relates to Mycobacterium tuberculosis. Put plainly: Antimycobacterial activity against Mycobacterium tuberculosis H37Ra. The data set is classed as functional.
Data set [3] concerns Bacillus subtilis. Description: Antibacterial activity against Bacillus subtilis IAM 1609 assessed as diameter of inhibition zone at 50 ug measured after 24 hrs by agar diffusion method. Format: functional. The following applies: IAM 1609, 24 h, read-out: DIZ.
For data set [4], the system named is Bacillus subtilis. Put plainly: Antibacterial activity against Bacillus subtilis IFO-12732 assessed as diameter of inhibition zone at 50 ug measured after 24 hrs by agar diffusion method. The following applies: IFO-12732, 24 h, read-out: DIZ. Format: functional. Background: Agar diffusion results depend on both activity and mobility in agar.
The subject of data set [5] is Corynebacterium glutamicum. Put plainly: Antibacterial activity against Corynebacterium lilium assessed as diameter of inhibition zone at 50 ug measured after 24 hrs by agar diffusion method. The data set is classed as functional. The following applies: read-out: DIZ.
The next data set has as its system Staphylococcus aureus. Put plainly: Antibacterial activity against Staphylococcus aureus R-209 assessed as diameter of inhibition zone at 50 ug measured after 24 hrs by agar diffusion method. Format: functional. The following applies: R-209, 24 h, read-out: DIZ.
The next data set concerns Mus musculus. Put plainly: Antithrombotic activity in ICR mouse assessed as inhibition of platelet aggregation at 20 mg/kg, po measured after 1 hr relative to control. Format: functional.
The subject of another data set is Meloidogyne incognita. Description: Nematicidal activity against Meloidogyne incognita. The data set is classed as functional.
For data set [6], the system named is Human immunodeficiency virus 1. Description: Antiviral activity against HIV1 3B infected in human C8166 cells assessed as inhibition of virus-induced syncytia formation after 3 days. The data set is classed as functional, organism-based. The following applies: Human immunodeficiency virus 1, 3B, C8166, 72 h.
A short description of data set [7]: Therapeutic Index, ratio of CC50 for human C8166 cells to EC50 for HIV1 3B infected in human C8166 cells. Format: toxicity, cell-based. The following applies: HIV-1 3B infected C8166 cells, read-out: Ratio CC50/EC50.

The results in this text go back to ChEMBL document CHEMBL4190273, “Mushroom-Derived Indole Alkaloids” (J Nat Prod, 2017).

SMILES strings stand for the structures. In brackets after ≈: the same amount, converted by molar mass. *1 amine or outer side, *2 acyl side, *3 side chain or, on linkers, in order; H or OH if unused. Where a SMILES comes first, the peptide text is derived from it. [ ]: non-standard residue; d: D form. X1 = C[C@@H]([C@H](C)OC(=O)CC(C)(C)O)[C@@H](C(=O)[*:2])N(C)[*:1]; X5 = O=C([C@@H]1C[C@@]2(O)c3ccccc3N(O)[C@H]2N1[*:1])[*:2]; X6 = CC(=O)O[C@@H](C)[C@H](C)[C@@H](C(=O)[*:2])N(C)[*:1]; X3 = O=C([C@@H]1C[C@@]2(O)c3ccccc3N[C@H]2N1[*:1])[*:2]; X7 = CC(=O)O[C@@H](C(=O)[*:2])N(C)[*:1]; NMeVal(β-OH) = CN[C@H](C(=O)O)C(C)(C)O; X2 = CC(=O)O[C@H](C(=O)[*:2])N(C)[*:1]; NMeI = CC[C@H](C)[C@H](NC)C(=O)O; X4 = CN([C@H](O)C(=O)[*:2])[*:1]; NMeV = CN[C@H](C(=O)O)C(C)C; Sar = CNCC(=O)O

Molecule `CC[C@H](C)[C@@H]1NC(=O)CNC(=O)[C@@H]2Cc3c([nH]c4cc(O)ccc34)[S+]([O-])C[C@H](NC(=O)CNC1=O)C(=O)N[C@@H](CC(N)=O)C(=O)N1C[C@H](O)C[C@H]1C(=O)N[C@@H]([C@@H](C)[C@@H](O)CO)C(=O)N2` (some centres undefined) showed an LD50 in data set [1] of 0.2 to 0.5 mg/kg.
Take `CC[C@H](C)[C@@H]1NC(=O)CNC(=O)[C@@H]2Cc3c([nH]c4cc(O)ccc34)[S+]([O-])C[C@H](NC(=O)CNC1=O)C(=O)N[C@@H](CC(N)=O)C(=O)N1C[C@H](O)C[C@H]1C(=O)N[C@@H]([C@@H](C)[C@H](C)O)C(=O)N2` (some centres undefined): the median lethal dose (LD50) in data set [1] was in the range of 0.2 to 0.5 mg/kg.
Same read-out and setting: the value for `CC[C@H](C)[C@@H]1NC(=O)CNC(=O)[C@@H]2Cc3c([nH]c4cc(O)ccc34)[S+]([O-])C[C@H](NC(=O)CNC1=O)C(=O)N[C@@H](CC(=O)O)C(=O)N1C[C@H](O)C[C@H]1C(=O)N[C@@H]([C@@H](C)[C@@H](O)CO)C(=O)N2` (some centres undefined) was 0.2 to 0.5 mg/kg.
With `C=CC(C)(C)c1[nH]c2c(CC=C(C)C)cc(CC=C(C)C)cc2c1C[C@H]1NC(=O)[C@@H](C)NC1=O`, the MIC in data set [2] stood at 170 µM (≈ 78.4 µg/mL).
For `CC[C@@](C)(NC(=O)C(C)(C)NC(=O)[C@@H](NC(=O)[C@H](Cc1c[nH]c2ccccc12)NC(C)=O)C(C)C)C(=O)N[C@@H](C)C(=O)N[C@@H](CCC(N)=O)C(=O)N[C@@H](C)C(=O)NC(C)(C)C(=O)N[C@@H](CO)C(=O)NC(C)(C)C(=O)N[C@@H](C)C(=O)N[C@@H](CC(C)C)C(=O)NC(C)(C)C(=O)N[C@@H](CCC(N)=O)C(=O)N[C@H](CO)CC(C)C`, the zone of inhibition at 50 µg/disc (with Bacillus subtilis [3]; in the data set on Bacillus subtilis [4]; in data set [5]; in the data set on Staphylococcus aureus) was 13 to 18 mm in each case.
As to `N[C@@H](Cc1c[nH]c2ccccc12)C(=O)NCC(=O)N[C@@H](CS)C(=O)O` (H-Trp-Gly-Cys-OH), in the data set on Mus musculus, the inhibition in vivo at 20 mg/kg is 83.3%.
As to `CC[C@H](C)[C@@H]1NC(=O)[C@H](C(C)C)N(C)C(=O)[C@@H]2C[C@@]3(O)c4ccccc4N(O)[C@H]3N2C(=O)CN(C)C(=O)[C@H]([C@@H](C)CC)N(C)C(=O)[C@H](C(C)C)NC(=O)CN(C)C(=O)[C@H]([C@@H](C)CC)N(C)C(=O)[C@H](C(C)(C)O)N(C)C(=O)CN(C)C(=O)[C@H](C(C)C)N(C)C(=O)[C@H](C(C)C)N(C)C1=O` (HELM PEPTIDE1{I.[meV].[meV].[Sar].[CN([C@H](C(=O)[*:2])C(C)(C)O)[*:1]].[meI].[Sar].V.[meI].[Sar].[O=C([C@@H]1C[C@@]2(O)c3ccccc3N(O)[C@H]2N1[*:1])[*:2]].[meV]}$PEPTIDE1,PEPTIDE1,1:R1-12:R2$$$V2.0), the LD90 in the data set with Meloidogyne incognita fell in the range of 2 to 5 µg/mL.
On the same count and under the same terms, the value for `CC[C@H](C)[C@@H]1NC(=O)[C@H](C(C)C)N(C)C(=O)[C@@H]2C[C@@]3(O)c4ccccc4N[C@H]3N2C(=O)CN(C)C(=O)[C@H]([C@@H](C)CC)N(C)C(=O)[C@H](C(C)C)NC(=O)CN(C)C(=O)[C@H]([C@@H](C)CC)N(C)C(=O)[C@H](C(C)(C)O)N(C)C(=O)CN(C)C(=O)[C@H](C(C)C)N(C)C(=O)[C@H](C(C)C)N(C)C1=O` (HELM PEPTIDE1{I.[meV].[meV].[Sar].[CN([C@H](C(=O)[*:2])C(C)(C)O)[*:1]].[meI].[Sar].V.[meI].[Sar].[O=C([C@@H]1C[C@@]2(O)c3ccccc3N[C@H]2N1[*:1])[*:2]].[meV]}$PEPTIDE1,PEPTIDE1,1:R1-12:R2$$$V2.0) was 2 to 5 µg/mL; that for `CC[C@H](C)[C@@H]1NC(=O)[C@H](C(C)C)N(C)C(=O)[C@H](Cc2c[nH]c3ccccc23)NC(=O)CN(C)C(=O)[C@H]([C@@H](C)CC)N(C)C(=O)[C@H](C(C)C)NC(=O)CN(C)C(=O)[C@H]([C@@H](C)CC)N(C)C(=O)[C@H](C(C)C)N(C)C(=O)CN(C)C(=O)[C@H](C(C)C)N(C)C(=O)[C@H](C(C)C)N(C)C1=O` (HELM PEPTIDE1{I.[meV].[meV].[Sar].[meV].[meI].[Sar].V.[meI].[Sar].W.[meV]}$PEPTIDE1,PEPTIDE1,1:R1-12:R2$$$V2.0) was 2 to 5 µg/mL.
For `CC(=O)N[C@@H](Cc1c[nH]c2ccccc12)C(=O)N[C@H](C(=O)NC(C)(C)C(=O)NC(C)(C)C(=O)N[C@@H](C)C(=O)N[C@@H](CCC(N)=O)C(=O)N[C@@H](C)C(=O)NC(C)(C)C(=O)N[C@@H](CO)C(=O)NC(C)(C)C(=O)N[C@@H](C)C(=O)N[C@@H](CC(C)C)C(=O)NC(C)(C)C(=O)N[C@@H](CCC(N)=O)C(=O)N[C@H](CO)CC(C)C)C(C)C` (HELM PEPTIDE1{[ac].W.V.[Aib].[Aib].A.Q.A.[Aib].S.[Aib].A.L.[Aib].Q.[CC(C)C[C@@H](CO)N[*:1]]}$$$$V2.0), the zone of inhibition at 50 µg/disc (in the data set on Bacillus subtilis [3]; in the data set on Bacillus subtilis [4]; in [5]; in the data set with Staphylococcus aureus) was 13 to 18 mm throughout.
Consider `CC[C@H](C)[C@@H]1NC(=O)[C@H](C(C)C)N(C)C(=O)[C@@H]2C[C@@]3(O)c4ccccc4N(O)[C@H]3N2C(=O)CN(C)C(=O)[C@H]([C@@H](C)CC)N(C)C(=O)[C@H](C(C)C)NC(=O)[C@@H](O)N(C)C(=O)[C@H]([C@@H](C)CC)N(C)C(=O)[C@H](C(C)(C)O)N(C)C(=O)CN(C)C(=O)[C@H](C(C)C)N(C)C(=O)[C@H](C(C)C)N(C)C1=O` (cyclo(I[NMeV][NMeV][Sar][NMeVal(β-OH)][NMeI][X4]V[NMeI][Sar][X5][NMeV])), for which, in the data set with Meloidogyne incognita, the LD90 lay within 2 to 5 µg/mL.
On to `CC[C@H](C)[C@@H]1NC(=O)[C@H](C(C)C)N(C)C(=O)[C@@H]2C[C@@]3(O)c4ccccc4N[C@H]3N2C(=O)CN(C)C(=O)[C@H]([C@@H](C)CC)N(C)C(=O)[C@H](C(C)C)NC(=O)[C@@H](OC(C)=O)N(C)C(=O)[C@H]([C@@H](C)[C@H](C)OC(=O)CC(C)(C)O)N(C)C(=O)[C@H](C(C)(C)O)N(C)C(=O)CN(C)C(=O)[C@H](C(C)C)N(C)C(=O)[C@H](C(C)C)N(C)C1=O` (cyclo(I[NMeV][NMeV][Sar][NMeVal(β-OH)][X1][X2]V[NMeI][Sar][X3][NMeV])), for which, in the data set on Meloidogyne incognita, the LD90 is 2 to 5 µg/mL.
On the same count and under the same terms, the value for `CC[C@H](C)[C@@H]1NC(=O)[C@H](C(C)C)N(C)C(=O)[C@@H]2C[C@@]3(O)c4ccccc4N(O)[C@H]3N2C(=O)CN(C)C(=O)[C@H]([C@@H](C)CC)N(C)C(=O)[C@H](C(C)C)NC(=O)[C@@H](OC(C)=O)N(C)C(=O)[C@H]([C@@H](C)[C@H](C)OC(=O)CC(C)(C)O)N(C)C(=O)[C@H](C(C)(C)O)N(C)C(=O)CN(C)C(=O)[C@H](C(C)C)N(C)C(=O)[C@H](C(C)C)N(C)C1=O` (cyclo(I[NMeV][NMeV][Sar][NMeVal(β-OH)][X1][X2]V[NMeI][Sar][X5][NMeV])) was 2 to 5 µg/mL.
`CC[C@H](C)[C@@H]1NC(=O)[C@H](C(C)C)N(C)C(=O)[C@@H]2C[C@@]3(O)c4ccccc4N[C@H]3N2C(=O)CN(C)C(=O)[C@H]([C@@H](C)CC)N(C)C(=O)[C@H](C(C)C)NC(=O)[C@@H](O)N(C)C(=O)[C@H]([C@@H](C)[C@H](C)OC(=O)CC(C)(C)O)N(C)C(=O)[C@H](C(C)(C)O)N(C)C(=O)CN(C)C(=O)[C@H](C(C)C)N(C)C(=O)[C@H](C(C)C)N(C)C1=O` (cyclo(I[NMeV][NMeV][Sar][NMeVal(β-OH)][X1][X4]V[NMeI][Sar][X3][NMeV])) returned an LD90 with Meloidogyne incognita of 2 to 5 µg/mL.
Still for that read-out and setting: the value for `CC[C@H](C)[C@@H]1NC(=O)[C@H](C(C)C)N(C)C(=O)[C@@H]2C[C@@]3(O)c4ccccc4N(O)[C@H]3N2C(=O)CN(C)C(=O)[C@H]([C@@H](C)CC)N(C)C(=O)[C@H](C(C)C)NC(=O)[C@@H](OC(C)=O)N(C)C(=O)[C@H]([C@@H](C)[C@H](C)OC(C)=O)N(C)C(=O)[C@H](C(C)(C)O)N(C)C(=O)CN(C)C(=O)[C@H](C(C)C)N(C)C(=O)[C@H](C(C)C)N(C)C1=O` (cyclo(I[NMeV][NMeV][Sar][NMeVal(β-OH)][X6][X2]V[NMeI][Sar][X5][NMeV])) was 2 to 5 µg/mL; that for `CC[C@H](C)[C@@H]1NC(=O)[C@H](C(C)C)N(C)C(=O)[C@@H]2C[C@@]3(O)c4ccccc4N[C@H]3N2C(=O)CN(C)C(=O)[C@H]([C@@H](C)CC)N(C)C(=O)[C@H](C(C)C)NC(=O)[C@H](OC(C)=O)N(C)C(=O)[C@H]([C@@H](C)[C@H](C)OC(C)=O)N(C)C(=O)[C@H](C(C)(C)O)N(C)C(=O)CN(C)C(=O)[C@H](C(C)C)N(C)C(=O)[C@H](C(C)C)N(C)C1=O` (cyclo(I[NMeV][NMeV][Sar][NMeVal(β-OH)][X6][X7]V[NMeI][Sar][X3][NMeV])) was 2 to 5 µg/mL.
Take `O=C(O)c1cc2c([nH]c3ccccc32)c(-c2ccc(CO)o2)n1` [FLAZINE]: the EC50 in data set [6] is 2360 nM. For the same molecule, the selectivity ratio in [7] stood at 12.1.

In general, LD50 refers to the dose at which mortality reaches 50%. Usually MIC stands for the smallest concentration in the dilution series that meets the test's criterion for growth inhibition. One may read the inhibition in vivo as the share of the control response that was lost under treatment. A word on the EC50: it is the midpoint of the concentration-response curve.
